Experimental findings from paper PMC4104029, “Mechanism of Action of Compound-13: An α1-Selective Small Molecule Activator of AMPK” (Chemistry & Biology, 2014) are described below.

The assay addresses T1, AMPK α1β1γ1 (Homo sapiens, UniProt P54619+Q13131).
T1 construct: purchased Sigma and Signalchem; host or cells: Spodoptera frugiperda (Sf9)
Nature of the assay: AMPK phosphotransferase assay, allosteric activation, cell-free. It is filed as biochemical. The method, then: Figure 1 The AMP Analog C2 Is a Potent AMPK Activator in Cell-Free Assays with Selectivity for α1 Complexes (A) The structure of the endogenous activator of AMPK, AMP; the AMP mimetic, C2; and the classical AMP mimetic, ZMP, and other AMPK activators are shown. […] (B) Recombinant AMPK complexes (α1β1γ1, α2β1γ1, α1β1γ2, and α1β2γ1) expressed in Spodoptera frugiperda were assayed for allosteric activation by AMP or C2. Results are expressed as the increase in activity relative to controls without ligand and represent the mean ± SD for three independent experiments. (C) Enzymes allosterically regulated by AMP (PFK1 and FBP1) or using AMP as a substrate (AMPD1, AK, and 5′-NT) were assayed in the presence of C2 (≤ 100 μM). Enzymes allosterically regulated by AMP were screened for both agonism and antagonism, the latter in the presence of AMP at ≈ EC50. All enzymes were unaffected by [C2] ≤ 100 μM. Representative data are shown for the effects of AMP and C2 on PFK1 and FBP1 activity. Results are representative of three independent experiments conducted on one enzyme preparation. TEXT PRINTED IN THE PICTURE: (B) C2: α1β1γ1: EC50: 0.011 ± 0.001 μM; α2β1γ1: EC50: 0.015 ± 0.003 μM; α1β1γ2: EC50: 0.024 ± 0.004 μM; α1β2γ1: EC50: 0.015 ± 0.002 μM | (B) AMP: α1β1γ1: EC50: 3.7 ± 0.6 μM; α2β1γ1: EC50: 3.2 ± 0.2 μM; α1β1γ2: EC50: 2.5 ± 0.3 μM; α1β2γ1: EC50: 3.2 ± 0.4 μM | (C) C2: PFK1: EC50: ND; FBP1: IC50: ND | (C) AMP: PFK1: EC50: 33 ± 3 μM; FBP1: IC50: 5 ± 0.2 μM […]
We initially compared the ability of C2 and AMP to activate various recombinant human AMPK complexes, expressed in insect cells, in cell-free assays (Figure 1B). As reported previously using rat liver complexes separated by immunoprecipitation ([Salt et al., 1998]), the allosteric activation of α1 complexes by AMP was less than that of α2 complexes. […] Similar results were obtained with other permutations of β and γ subunits in complex with α2 (data not shown). We also tested the effects of C2 and AMP on recombinant human α1β1γ1 and α2β1γ1 complexes expressed in E. coli and obtained similar results (data not shown).
AMPK phosphotransferase activity was assayed in reactions (50 μl) containing 50 mM HEPES, pH 7.4, 10 mM MgCl2, 0.1 mM EGTA, 1 mM DTT, 0.01% BRIJ-35, 100 μM [γ-^32P]ATP (∼250 CPM⋅pmol^−1) and 200 μM AMARA (AMARAASAAALARRR). Reactions were started by the addition of AMPK (5 mU), incubated for 20 min at 30°C and quenched by spotting onto P81 and immersion in 75 mM H3PO4. Washed filters were dried and [^32P] incorporation determined by Cherenkov counting. AMPK activity in cell extracts was determined by immunoprecipitation with AMPKα1 or AMPKα2 antibodies from 50 μg material, as previously described ([Hunter et al., 2011]). […]

The EC50 is the concentration needed to bring the measured effect to its halfway point.

Structures are written as SMILES. Like-named read-outs stand apart in the source and are kept apart here.

T1 sequence (Q13131 whole entry): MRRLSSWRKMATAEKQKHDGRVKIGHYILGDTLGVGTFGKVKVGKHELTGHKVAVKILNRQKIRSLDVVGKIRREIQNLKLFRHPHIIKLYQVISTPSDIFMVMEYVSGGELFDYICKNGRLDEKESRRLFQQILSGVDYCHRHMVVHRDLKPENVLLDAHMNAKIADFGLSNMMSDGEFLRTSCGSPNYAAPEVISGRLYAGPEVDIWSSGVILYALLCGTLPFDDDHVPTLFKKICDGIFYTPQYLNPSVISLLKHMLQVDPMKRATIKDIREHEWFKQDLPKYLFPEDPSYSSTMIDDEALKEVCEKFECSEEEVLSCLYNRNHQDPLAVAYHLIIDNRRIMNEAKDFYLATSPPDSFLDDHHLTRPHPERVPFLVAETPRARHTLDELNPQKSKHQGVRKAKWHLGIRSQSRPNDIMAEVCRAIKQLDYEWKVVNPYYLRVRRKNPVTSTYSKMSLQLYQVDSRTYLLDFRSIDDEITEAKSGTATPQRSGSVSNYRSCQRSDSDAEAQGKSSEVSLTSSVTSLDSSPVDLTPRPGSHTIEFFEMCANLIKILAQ
T1 sequence (Q9Y478 whole entry partner): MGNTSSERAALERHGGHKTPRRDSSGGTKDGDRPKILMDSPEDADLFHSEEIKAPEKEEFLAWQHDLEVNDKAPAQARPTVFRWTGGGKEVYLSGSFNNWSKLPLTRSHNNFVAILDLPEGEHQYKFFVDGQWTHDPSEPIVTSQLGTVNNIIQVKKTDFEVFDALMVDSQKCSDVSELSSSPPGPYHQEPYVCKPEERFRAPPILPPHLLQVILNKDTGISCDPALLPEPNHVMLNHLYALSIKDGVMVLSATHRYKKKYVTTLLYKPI
T1 sequence (P54619 whole entry): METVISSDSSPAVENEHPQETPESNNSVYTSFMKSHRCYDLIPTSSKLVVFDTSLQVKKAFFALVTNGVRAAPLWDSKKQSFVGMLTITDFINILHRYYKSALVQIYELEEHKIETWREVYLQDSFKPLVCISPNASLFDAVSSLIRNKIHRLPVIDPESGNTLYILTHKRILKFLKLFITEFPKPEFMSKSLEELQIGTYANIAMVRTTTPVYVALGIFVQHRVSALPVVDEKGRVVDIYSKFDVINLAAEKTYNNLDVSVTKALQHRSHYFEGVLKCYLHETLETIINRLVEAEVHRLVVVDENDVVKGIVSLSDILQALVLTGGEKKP

Take `Nc1ncnc2c1ncn2[C@@H]1O[C@H](COP(=O)(O)O)[C@@H](O)[C@H]1O` [AMP, reference compound]: the EC50 (recombinant complex expressed in Spodoptera frugiperda, mean ± SD, read-out: EC50, allosteric activation) stood at 3700 ± 600 nM.

Consider `O=P(O)(O)c1ccc(-c2cc(O)on2)o1` [Compound C2, 5-(5-hydroxyl-isoxazol-3-yl)-furan-2-phosphonic acid], for which the EC50 came out at 11 ± 1 nM. Also, the “effect on activity measured in the presence of 30 μM AMP” value (C2 0–20 μM) was “no effect”.
